Experimental data published in US11827628B2, “Compositions and methods for inhibition of the JAK pathway” (Rigel Pharmaceuticals, Inc., priority 2005, dated 2023).
Like-named read-outs stand apart in the source and are kept apart here.

Tested on: up-regulation of ICAM-1 (CD54) by IFNγ in U937 human monocytic cells
Test: U937 IFNγ ICAM1 FACS Assay
Format: cell-based
Conditions: U937 cells stimulated with IFNγ, ICAM-1 expression by FACS, read-out: IC50, Example 44
Outline: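 Readout was the geometric-mean APC anti-ICAM-1 signal by FACS on live U937 monocytic cells, with % live cells also recorded. Cells were exposed to compounds (8 points, 3-fold dilutions, duplicates) for 30 min at 37 °C before 18–24 h of IFNγ stimulation. EC50 values were computed from the dose curve.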

| Structure (SMILES) | IC50 [nM] | IC50 (sodium Salt) [nM] |
| --- | --- | --- |
| Cc1cc(Nc2nc(Nc3ccc(S(N)(=O)=O)cc3)ncc2F)ccc1OC(C)C#N (racemic) [Compound I-60, Racemic N2-(4-Aminosulfonyl)phenyl-N4-[4-(1-cyano)ethoxy-3-methyl]phenyl-5-fluoro-2,4-pyrimidinediamine] | 848 | – |
| Cc1cc(Nc2nc(Nc3cccc(S(N)(=O)=O)c3)ncc2F)ccc1OC(C)C#N (racemic) [Compound I-61, Racemic N2-(3-Aminosulfonyl)phenyl-N4-[4-(1-cyano)ethoxy-3-methyl]phenyl-5-fluoro-2,4-pyrimidinediamine] | 427 | – |
| Cc1cc(Nc2nc(Nc3ccc(C)c(S(N)(=O)=O)c3)ncc2F)ccc1OC(C)C#N (racemic) [Compound I-62, Racemic N2-(3-Aminosulfonyl-4-methyl)phenyl-N4-[4-(1-cyano)ethoxy-3-methyl]phenyl-5-fluoro-2,4-pyrimidinediamine] | 735 | – |
| Cc1cc(Nc2nc(Nc3ccc(S(N)(=O)=O)cc3)ncc2F)cc(C)c1OC(C)C#N (racemic) [Compound I-63, Racemic N2-(4-Aminosulfonyl)phenyl-N4-[4-(1-cyano)ethoxy-3,5-dimethyl]phenyl-5-fluoro-2,4-pyrimidinediamine] | 691 | – |
| COc1cc(Nc2ncc(F)c(Nc3ccc(OC(C)C#N)c(C)c3)n2)ccc1S(N)(=O)=O (racemic) [Compound I-64, Racemic N2-(4-Aminosulfonyl-3-methoxy)phenyl-N4-[4-(1-cyano)ethoxy-3-methyl]phenyl-5-fluoro-2,4-pyrimidinediamine] | 1150 | – |
| CC(C#N)Oc1ccc(Nc2nc(Nc3cccc(S(N)(=O)=O)c3)ncc2F)cc1 (racemic) [Compound I-65, Racemic N2-(3-Aminosulfonyl)phenyl-N4-[4-(1-cyano)ethoxy]phenyl-5-fluoro-2,4-pyrimidinediamine] | 316 | – |
| CC(C#N)Oc1ccc(Nc2nc(Nc3ccc(S(N)(=O)=O)cc3)ncc2F)cc1 (racemic) [Compound I-66, Racemic N2-(4-Aminosulfonyl)phenyl-N4-[4-(1-cyano)ethoxy]phenyl-5-fluoro-2,4-pyrimidinediamine] | 689 | – |
| Cc1ccc(Nc2ncc(F)c(Nc3ccc(OC(C)C#N)cc3)n2)cc1S(N)(=O)=O (racemic) [Compound I-67, Racemic N2-(3-Aminosulfonyl-4-methyl)phenyl-N4-[4-(1-cyano)ethoxy]phenyl-5-fluoro-2,4-pyrimidinediamine] | 239 | – |
| CC(C#N)Oc1ccc(Nc2nc(Nc3ccc(F)c(S(N)(=O)=O)c3)ncc2F)cc1 (racemic) [Compound I-68, Racemic N2-(3-Aminosulfonyl-4-fluoro)phenyl-N4-[4-(1-cyano)ethoxy]phenyl-5-fluoro-2,4-pyrimidinediamine] | 913 | – |
| COc1cc(Nc2ncc(F)c(Nc3ccc(OC(C)C#N)cc3)n2)ccc1S(N)(=O)=O (racemic) [Compound I-70, Racemic N2-(4-Aminosulfonyl-3-methoxy)phenyl-N4-[4-(1-cyano)ethoxy]phenyl-5-fluoro-2,4-pyrimidinediamine] | 384 | – |
| Cc1cc(Nc2nc(Nc3cccc(S(N)(=O)=O)c3)ncc2F)cc(C)c1OC(C)C#N (racemic) [Compound I-71, Racemic N2-(3-Aminosulfonyl)phenyl-N4-[4-(1-cyano)ethoxy-3,5-dimethyl]phenyl-5-fluoro-2,4-pyrimidinediamine] | 328 | – |
| Cc1ccc(Nc2ncc(F)c(Nc3cc(C)c(OC(C)C#N)c(C)c3)n2)cc1S(N)(=O)=O (racemic) [Compound I-72, Racemic N2-(3-Aminosulfonyl-4-methyl)phenyl-N4-[4-(1-cyano)ethoxy-3,5-dimethyl]phenyl-5-fluoro-2,4-pyrimidinediamine] | 574 | – |
| Cc1cc(Nc2nc(Nc3ccc(F)c(S(N)(=O)=O)c3)ncc2F)ccc1OCC#N [Compound I-34, N2-(3-Aminosulfonyl-4-fluoro)phenyl-N4-(4-cyanomethoxy-3-methyl)phenyl-5-fluoro-2,4-pyrimidinediamine] | 1050 | – |
| Cc1cc(Nc2nc(Nc3ccc(F)c(S(N)(=O)=O)c3)ncc2F)cc(C)c1OCC#N [Compound I-35, N2-(3-Aminosulfonyl-4-fluoro)phenyl-N4-(4-cyanomethoxy-3,5-dimethyl)phenyl-5-fluoro-2,4-pyrimidinediamine] | 1820 | – |
| Cc1ccc(Nc2ncc(F)c(Nc3ccc(OCC#N)cc3)n2)cc1S(=O)(=O)NC(=O)C(C)C [Compound I-37, N4-(4-Cyanomethyleneoxy)phenyl-5-fluoro-N2-(3-isobutyrylaminosulfonyl-4-methyl)phenyl-2,4-pyrimidinediamine] | 5740 | – |
| Cc1ccc(Nc2ncc(F)c(Nc3ccc(OCC#N)c(Cl)c3)n2)cc1S(N)(=O)=O [Compound I-43, N2-(3-Aminosulfonyl-4-methylphenyl)-N4-(3-chloro-4-cyanomethoxypheny)-5-fluoro-2,4-pyrimidinediamine] | 771 | – |
| Cc1cnc(Nc2ccc(S(N)(=O)=O)cc2)nc1Nc1ccc(OCC#N)cc1 [Compound I-57, N2-(4-Aminosulfonylphenyl)-N4-(4-cyanomethoxyphenyl-5)-methyl-2,4-pyrimidinediamine] | 140 | – |

| Structure (SMILES) | IC50 [nM] | IC50 (sodium Salt) [nM] |
| --- | --- | --- |
| Cc1ccc(Nc2ncc(F)c(Nc3ccc(OC(C)(C)C#N)cc3)n2)cc1S(N)(=O)=O [Compound I-73, N2-(3-Aminosulfonyl-4-methyl)phenyl-N4-[4-(1-cyano-1-methyl)ethoxy]phenyl-5-fluoro-2,4-pyrimidinediamine] | 1060 | – |
| CC(C)(C#N)Oc1ccc(Nc2nc(Nc3ccc(F)c(S(N)(=O)=O)c3)ncc2F)cc1 [Compound I-74, N2-(3-Aminosulfonyl-4-fluoro)phenyl-N4-[4-(1-cyano-1-methyl)ethoxy]phenyl-5-fluoro-2,4-pyrimidinediamine] | 1760 | – |
| CC(C)(C#N)Oc1ccc(Nc2nc(Nc3ccc(S(N)(=O)=O)cc3)ncc2F)cc1 [Compound I-75, N2-(4-Aminosulfonyl)phenyl-N4-[4-(1-cyano-1-methyl)ethoxy]phenyl-5-fluoro-2,4-pyrimidinediamine] | 3100 | – |
| CC(C)(C#N)Oc1ccc(Nc2nc(Nc3cccc(S(N)(=O)=O)c3)ncc2F)cc1 [Compound I-76, N2-(3-Aminosulfonyl)phenyl-N4-[4-(1-cyano-1-methyl)ethoxy]phenyl-5-fluoro-2,4-pyrimidinediamine] | 1120 | – |
| Cc1ccc(Nc2ncc(F)c(Nc3cccc(OCC(N)=O)c3)n2)cc1S(N)(=O)=O [Compound I-90, N4-(3-Aminocarbonylmethoxy)phenyl-N2-(3-aminosulfonyl-4-methyl)phenyl-5-fluoro-2,4-pyrimidinediamine] | 6160 | – |
| Cc1cc(Nc2nc(Nc3cccc(S(N)(=O)=O)c3)ncc2F)ccc1OCC(N)=O [Compound I-92, N4-(4-Aminocarbonylmethoxy-3-methyl)phenyl-N2-(3-aminosulfonyl)phenyl-5-fluoro-2,4-pyrimidinediamine] | 15600 | – |
| Cc1cc(Nc2nc(Nc3cccc(S(N)(=O)=O)c3)ncc2F)cc(C)c1OCC(N)=O [Compound I-93, N4-(4-Aminocarbonylmethoxy-3,5-dimethyl)phenyl-N2-(3-aminosulfonyl)phenyl-5-fluoro-2,4-pyrimidinediamine] | 11100 | – |
| Cc1ccc(Nc2ncc(F)c(Nc3ccc(OCC(N)=O)cc3)n2)cc1S(N)(=O)=O [Compound I-94, N4-(4-Aminocarbonylmethoxy)phenyl-N2-(3-aminosulfonyl-4-methyl)phenyl-5-fluoro-2,4-pyrimidinediamine] | 5670 | – |
| Cc1cc(Nc2nc(Nc3ccc(C)c(S(N)(=O)=O)c3)ncc2F)ccc1OCC(N)=O [Compound I-95, N4-(4-Aminocarbonylmethoxy-3-methyl)phenyl-N2-(3-aminosulfonyl-4-methyl)phenyl-5-fluoro-2,4-pyrimidinediamine] | 6300 | – |
| CCC(=O)NS(=O)(=O)c1cccc(Nc2ncc(F)c(Nc3ccc(OCc4nc(C)no4)cc3)n2)c1 [Compound I-273] | – | 5100 |
| CNS(=O)(=O)c1cc(Nc2ncc(F)c(Nc3ccc(Cc4ccncc4)cc3)n2)ccc1C [III-75, 5-Fluoro-N2-[3-(N-methylaminosulfony)-4-methylphenyl]-5-fluoro-N4-[4-(4-pyridinylmethyl)phenyl]-2,4-pyrimidinediamine] | 1770 | – |
| CNS(=O)(=O)c1cc(Nc2ncc(F)c(NCCc3ccc(-c4ccncc4)cc3)n2)ccc1C [III-78, 5-Fluoro-N2-[3-N-(methyl)aminosulfonyl-4-methylphenyl]-N4-[4-(4-pyridinyl)phenethyl]-2,4-pyrimidinediamine] | 22900 | – |
| NS(=O)(=O)c1cccc(Nc2ncc(F)c(Nc3ccc(Cn4ccnc4)cc3)n2)c1 [III-81, N2-(3-Aminosulfonylphenyl)-5-fluoro-N4-[4-(1-imidazolylmethyl)phenyl]-2,4-pyrimidinediamine] | 3430 | – |
| Cc1ccc(Nc2ncc(F)c(Nc3ccc(Cn4ccnc4)cc3)n2)cc1S(N)(=O)=O [III-82, N2-(3-Aminosulfonyl-4-methylphenyl)-5-fluoro-N4-[4-(1-imidazolylmethyl)phenyl]-2,4-pyrimidinediamine] | 2270 | – |
| CNS(=O)(=O)c1cc(Nc2ncc(F)c(Nc3ccc(Cn4ccnc4)cc3)n2)ccc1C [III-83, 5-Fluoro-N2-[3-(N-methylaminosulfony)-4-methylphenyl]-5-fluoro-N4-[4-(1-imidazolylmethyl)phenyl]-2,4-pyrimidinediamine] | 1360 | – |
| Cc1ccc(Nc2ncc(F)c(Nc3ccc4c(c3)CCN4S(C)(=O)=O)n2)cc1S(N)(=O)=O [VII-61, N2-(3-Aminosulfonyl-4-methylphenyl)-5-fluoro-N4-[4-(1-methylsulfonyl)indolin-5-yl]-2,4-pyrimidinediamine] | 356 | – |
